The values that follow come from patent publication US20130280741A1, “METHOD AND SYSTEM OF DETECTING DIOXIN-LIKE COMPOUNDS” (priority 2012, published 2013).

One assay deals with T1, AHR-RL and ARNT-YFP (Homo sapiens, UniProt P35869).
T1 construct: expressed in transfected cells
The assay can be described thus: BRET assay in AAPA cells. In kind it is cell-based. Here is the method: (§1) Tetracycline-regulated expression cells (T-REx™ cells) (Invitrogen, Carlsbad, Calif., USA) were transfected with AHR-RL, AIP-HIS and P23-HIS by lipofectamin 2000™ transfection reagent (Invitrogen, Carlsbad, Calif., USA) according to the manufacturer's instructions. Transfected cells were cultured in DMEM growth medium (Gibco, USA) supplemented with 10% fetal bovine serum (FBS), (Gibco, USA), 5 μg/ml Blasticidin, 250 μg/ml Zeocin and 500 μg/ml G418. The optimal cell lines were then transfected with ARNT-YFP or HSP90-YFP and selected with 200 μg/ml Hygromycin to obtain a stable cell line transfected with ARNT-YFP (called as “AAPA cells”) and obtain a stable cell line transfected with HSP90-YFP (called as “AAPH cells”).
For the inducible protein expression and AHR complex formation, the AAPA cells, which were stably co-transfected with AHR-RL, AIP-HIS, P23-HIS and ARNT-YFP, were prepared following the method as described in Example 2 and then were treated with 1 μg/ml tetracycline for 48 hours. Then, the treated cells were washed by phosphate-buffered saline (PBS) twice.
For dioxin detection, different concentrations of 3-methylcholanthrene (3MC) (Boehringer Mannheim, Mannheim, Germany) were mixed with the cells and cultured in a 96-well white polystyrene plate (Corning, USA) at 37° C. for 1 hour. The BRET signals were determined by addition of coelenterazine, a substrate of Renilla Luciferase, to a final concentration of […].

The target in a further assay is T2, AHR-RL and HSP90-YFP (Homo sapiens, UniProt P35869).
T2 construct: expressed in transfected cells
The assay can be described thus: BRET assay in AAPH cells. It is filed as cell-based. As to conditions: different concentrations, 37° C., dose-dependent (FIG. 2C). Here is the method: as §1
On the other hand, the AAPH cells, which were stably co-transfected with AHR-RL, AIP-HIS, P23-HIS and HSP-90YFP, were prepared and then mixed with different concentrations of 3MC and cultured in a 96-well white polystyrene plate (Corning, USA) at 37° C.

For the next assay, the target named is T3, AHR-RL (Homo sapiens, UniProt P35869).
T3 construct: expressed in transfected cells; host or cells: sonicated, cleared lysate of tetracycline-induced AAPA cells (T-REx cells, Invitrogen)
The assay can be described thus: Renilla luciferase signal of AHR-RL in cell-free AAPA whole cell lysate. It is filed as biochemical. The note with it: for detection limits / Renilla luciferase signals in the cell-free system: AAPA cell free lysate, 37° C.; for Renilla luciferase signals in the cell-free system: dose-dependent (FIGS. 4 and 5); for lowest concentration at which AHR-RL signal degradation can be detected: cell-free system. The protocol: 5×10^6 AAPA cells obtained in Example 4 were cultured in a 15 cm dish containing 25 ml DMEM medium supplemented with 10% FBS and 3.5 μg/ml tetracycline for 24 hrs. The cells were harvested and re-suspended in 10 ml cold PBS. The cells were lysed by sonication on ice using sonicator (Branson, Danbury Conn., USA) at amplitude of 10% for 30 cycles of 5 sec on and 15 sec off. The cellular debris was removed by centrifugation at 1,000 g for 10 min. For detection, 90 μl cell free lysates and different concentrations of 3MC were mixed and cultured in 96 well white polystyrene plate (Corning, USA) at room temperature. Renilla luciferase signals were determined by addition of coelenterazine to a final concentration of 0.35 μM. The result for detecting TCDD was shown in FIG. 3 (y=136.97x+2251.9, R^2=0.9794).
In addition, the cell free lysates and different concentrations of 3MC and TCDD were mixed and cultured in 96 well white polystyrene plate (Costar) at 37° C., respectively.

T3 sequence (P35869 11-848): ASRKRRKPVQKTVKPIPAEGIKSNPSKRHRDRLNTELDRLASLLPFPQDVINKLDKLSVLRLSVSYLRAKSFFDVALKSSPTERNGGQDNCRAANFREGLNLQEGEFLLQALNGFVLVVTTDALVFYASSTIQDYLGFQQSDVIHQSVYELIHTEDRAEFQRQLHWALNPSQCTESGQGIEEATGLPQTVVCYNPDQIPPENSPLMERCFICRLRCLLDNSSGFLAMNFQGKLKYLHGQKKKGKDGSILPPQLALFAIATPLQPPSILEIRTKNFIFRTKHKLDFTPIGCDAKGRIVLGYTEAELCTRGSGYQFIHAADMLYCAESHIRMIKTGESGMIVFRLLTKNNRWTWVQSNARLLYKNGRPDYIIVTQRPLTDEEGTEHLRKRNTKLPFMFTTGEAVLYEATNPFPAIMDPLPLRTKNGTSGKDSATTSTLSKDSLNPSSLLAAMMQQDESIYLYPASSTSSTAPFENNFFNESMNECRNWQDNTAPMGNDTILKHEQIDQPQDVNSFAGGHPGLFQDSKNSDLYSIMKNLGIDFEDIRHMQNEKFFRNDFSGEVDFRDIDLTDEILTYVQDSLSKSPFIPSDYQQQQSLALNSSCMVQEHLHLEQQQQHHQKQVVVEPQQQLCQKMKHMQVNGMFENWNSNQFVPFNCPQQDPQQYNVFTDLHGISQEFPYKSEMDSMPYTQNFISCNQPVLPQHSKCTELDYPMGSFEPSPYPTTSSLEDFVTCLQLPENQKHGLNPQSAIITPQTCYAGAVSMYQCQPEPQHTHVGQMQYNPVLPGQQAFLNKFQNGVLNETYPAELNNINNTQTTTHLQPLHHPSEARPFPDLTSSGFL
T3 sequence (P08238 whole entry partner): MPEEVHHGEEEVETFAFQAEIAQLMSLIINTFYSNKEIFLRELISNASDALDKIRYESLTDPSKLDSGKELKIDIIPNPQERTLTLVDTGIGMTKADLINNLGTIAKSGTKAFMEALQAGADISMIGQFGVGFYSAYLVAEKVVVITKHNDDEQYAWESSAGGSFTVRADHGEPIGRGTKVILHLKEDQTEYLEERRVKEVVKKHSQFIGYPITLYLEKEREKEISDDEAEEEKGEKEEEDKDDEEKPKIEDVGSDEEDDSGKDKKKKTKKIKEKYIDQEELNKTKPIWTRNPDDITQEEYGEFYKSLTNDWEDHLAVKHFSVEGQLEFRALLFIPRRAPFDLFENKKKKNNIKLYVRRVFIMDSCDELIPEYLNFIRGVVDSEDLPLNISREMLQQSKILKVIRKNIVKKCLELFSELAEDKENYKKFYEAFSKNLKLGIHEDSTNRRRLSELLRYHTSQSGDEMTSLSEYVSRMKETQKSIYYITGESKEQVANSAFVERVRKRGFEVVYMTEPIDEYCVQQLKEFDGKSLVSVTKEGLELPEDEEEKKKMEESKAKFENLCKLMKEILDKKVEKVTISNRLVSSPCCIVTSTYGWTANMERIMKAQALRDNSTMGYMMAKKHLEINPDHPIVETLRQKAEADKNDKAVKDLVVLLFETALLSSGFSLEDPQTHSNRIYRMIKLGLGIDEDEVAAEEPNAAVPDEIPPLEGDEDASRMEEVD
T3 sequence (O00170 whole entry partner): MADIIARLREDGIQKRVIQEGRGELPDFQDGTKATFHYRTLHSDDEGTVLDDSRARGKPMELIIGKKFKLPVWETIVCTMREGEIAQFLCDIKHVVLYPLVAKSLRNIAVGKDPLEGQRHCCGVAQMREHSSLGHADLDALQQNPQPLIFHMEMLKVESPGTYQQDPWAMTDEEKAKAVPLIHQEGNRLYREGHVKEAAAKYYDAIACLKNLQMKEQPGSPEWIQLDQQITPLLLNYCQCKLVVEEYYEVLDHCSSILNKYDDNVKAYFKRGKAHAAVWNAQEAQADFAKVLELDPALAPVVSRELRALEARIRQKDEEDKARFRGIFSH
T3 sequence (Q15185 whole entry partner): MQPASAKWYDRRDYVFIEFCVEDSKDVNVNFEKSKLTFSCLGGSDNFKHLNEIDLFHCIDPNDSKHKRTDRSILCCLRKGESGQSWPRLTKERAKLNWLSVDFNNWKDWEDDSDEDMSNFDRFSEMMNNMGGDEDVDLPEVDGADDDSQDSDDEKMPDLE
T1 sequence (P35869 11-848): as the sequence (P35869 11-848) above
T1 sequence (P08238 whole entry partner): as the sequence (P08238 whole entry partner) above
T1 sequence (O00170 whole entry partner): as the sequence (O00170 whole entry partner) above
T1 sequence (Q15185 whole entry partner): as the sequence (Q15185 whole entry partner) above
T2 sequence (P35869 11-848): as the sequence (P35869 11-848) above
T2 sequence (P08238 whole entry partner): as the sequence (P08238 whole entry partner) above
T2 sequence (O00170 whole entry partner): as the sequence (O00170 whole entry partner) above
T2 sequence (Q15185 whole entry partner): as the sequence (Q15185 whole entry partner) above

Consider `Cc1ccc2cc3c(ccc4ccccc43)c3c2c1CC3` [3MC, 3-methylcholanthrene], for which, at AHR-RL and ARNT-YFP (AAPA cells, different concentrations, 37° C. for 1 hour, dose-dependent (FIG. 2B)), the BRET signals entry is given as “increased”. In addition, the “concentration at which BRET signal induction was first observed” value on AHR-RL and ARNT-YFP is reported as 1 pM. Besides, the BRET signals result at AHR-RL and HSP90-YFP was “suppressed”. On AHR-RL, the detection limits was 10^−16 M, the “Renilla luciferase signals in the cell-free system” value is given as “increased” and the “lowest concentration at which AHR-RL signal degradation can be detected” value is 10 aM.

For `Clc1cc2c(cc1Cl)Oc1cc(Cl)c(Cl)cc1O2` [TCDD, 2,3,7,8-tetrachlorodibenzo-p-dioxin], the “concentration at which BRET signal induction was first observed” value on AHR-RL and ARNT-YFP stood at 1 pM. For the same compound, at AHR-RL, the detection limits was 10^−16 M, the “Renilla luciferase signals in the cell-free system” value is on record as “increased” and the “lowest concentration at which AHR-RL signal degradation can be detected” value amounted to 10 aM.
